In the METLIN SMRT retention time set (Domingo-Almenara et al. 2019):

Assay: gradient 5% acetonitrile 3 min, to 50% in 2 min, to 85% in 15 min, held 3 min, 100 µL/min
Details: column: Zorbax Extend-C18 2.1 x 50 mm; eluents: water / acetonitrile, 0.1% formic acid
Outline: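 A Zorbax Extend-C18 column (2.1 × 50 mm, 1.8 μm) run at 100 μL/min with water and acetonitrile, both containing 0.1% formic acid, separated mixtures of ~100 pure standards. The HPLC was coupled to a quadrupole time-of-flight mass spectrometer operated in positive and negative ionization mode, with dead and dwell volumes of 40 μL and 900 μL. Each retention time was taken from a computationally picked adduct peak that was then manually inspected.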

| Structure (SMILES) | RP-LC retention time [s] |
| --- | --- |
| O=C(Nc1nccs1)c1ccc(Cl)c(S(=O)(=O)N2CCOCC2)c1 | 729 |
| O=C(c1ccc2c(=O)n(-c3ccccc3)c(N3CCCCC3)nc2c1)N1CCN(c2ccccn2)CC1 | 669 |
| Cc1ccc(-c2nc(NC(=O)CCCOc3ccccc3C)sc2C)cc1 | 1270 |
| CCN1C(=O)c2cc(C(=O)N3CCC(N4CCCCC4)CC3)nn2CC1(C)C(=O)NC1CCCC1 (centres undefined) | 604 |
| Cc1ccccc1NC(=O)NCCCn1c(C(F)(F)F)nc2cccnc21 | 761 |
| CCC(c1cccs1)N1C(=O)[C@H]2CN(S(=O)(=O)c3ccccc3F)C[C@H]2C1=O (some centres undefined) | 972 |
| CCOCCCNC(=O)c1cc2sccc2n1Cc1ccc(Cl)cc1 | 1040 |
| CNC(Cc1ccccc1)c1ccc(OC)cc1 (centres undefined) | 567 |
| COCCCNC(=O)Cn1nc(C)c2sc(-c3ccccc3)nc2c1=O | 706 |
| COc1ccc(Cl)cc1NS(=O)(=O)c1c(C)sc(C)c1-c1cc(C(F)(F)F)on1 | 1220 |
| COc1ccc(C(=O)N2CCC3(CC2)NC(=O)c2cc(Cl)ccc2N3C)cc1 | 768 |
| CC(C)Oc1ccc(-c2noc(Cn3c(=O)n(-c4cccc(F)c4)c(=O)c4sccc43)n2)cc1 | 1090 |
| COc1ccc(CCN2C(=O)CC(N3CCN(c4ccccc4)CC3)C2=O)cc1OC (centres undefined) | 780 |
| O=c1c2cc(-c3ccc4c(c3)OCO4)nn2ccn1Cc1ccccc1F | 985 |
| COc1cc(-c2noc(C3CC(=O)N(c4ccc(C)c(Cl)c4)C3)n2)cc(OC)c1OC (centres undefined) | 1050 |
| Cc1ccc(C)c(NC(=O)C2CCCN(c3nnc(C)c4c(C)n(-c5ccccc5)nc34)C2)c1 (centres undefined) | 776 |
| Cc1cn(C)nc1C(=O)Nc1nnc(-c2ccco2)o1 | 622 |
| Cc1ccc(NC(=O)c2nc(C(C)C)oc2C)c(C)c1 | 1190 |
| Cc1ccc(NC(=O)C2CCCN(S(=O)(=O)c3cn(C(C)C)cn3)C2)cc1F (centres undefined) | 847 |
| CN(C)c1ccc(C(CNC(=O)COc2ccc(Cl)cc2)N(C)C)cc1 (centres undefined) | 683 |
| O=C(Cn1cnc2nc(N3CCC(C(=O)NC4CC4)CC3)sc2c1=O)NCCC1=CCCCC1 | 698 |
| COc1cc(NC(=O)NCC(c2cccn2C)N2CCOCC2)cc(OC)c1 (centres undefined) | 563 |
| CC(C)NC(=O)Cn1cnc2c(sc3nc(-c4ccccc4)ccc32)c1=O | 817 |

| Structure (SMILES) | RP-LC retention time [s] |
| --- | --- |
| CCOC(=O)N1CCN(c2cc(C(=O)O)c3cc(NC(=O)CC)ccc3n2)CC1 | 553 |
| CN1CCC=C(C(=O)N2c3ccccc3Sc3ccc(Cl)cc32)C1 | 762 |
| Cc1cc(C)c2nc(C)cc(C(=O)NCC(C)C)c2c1 | 701 |
| CCN1CCCC1CNC(=O)CCc1cc2cc(C)ccc2[nH]c1=O (centres undefined) | 588 |
| COc1ccccc1-c1[nH]ncc1CN1CCC2(CC1)CC(O)CCO2 (centres undefined) | 561 |
| COc1ccccc1CNC1=NCCNC12CCN(S(=O)(=O)c1ccccc1)CC2 | 692 |
| Cc1ccc(-c2csc(NC(=O)Cc3csc(C)n3)n2)cc1 | 930 |
| O=C(Cc1ccccc1Cl)NC1CCN(c2cc(-c3ccccc3)[nH]n2)C1 (centres undefined) | 721 |
| O=C(Nc1ccc(Cl)cc1)C1CCCN(S(=O)(=O)Cc2ccccc2)C1 (centres undefined) | 976 |
| Nc1nc(N2CCCC2)nc2ccccc12 | 592 |
| CCCOc1cc(N2CCN(C(=O)c3ccc4c(c3)OCO4)CC2)nc(C)n1 | 608 |
| CCN1CCn2cc(S(=O)(=O)NCc3cccc(C(F)(F)F)c3)cc2C1=O | 781 |
| CCCCN1C(=O)C(NC(=O)CCc2ccccc2)(C(F)(F)F)C(C(=O)OC)=C1C (centres undefined) | 1030 |
| O=c1c2cc3c(cc2nc(SCc2nc(-c4ccccc4)no2)n1CC1CCCO1)OCO3 (centres undefined) | 1100 |
| CCOc1ccc(Cc2nc(-c3ccc4oc(C)nc4c3)no2)cc1OCC | 1040 |
| CC1(C)NC(=O)N(CCC(=O)N2CCC(c3nc(C4CCOCC4)no3)C2)C1=O (centres undefined) | 604 |
| O=C(c1cc(Cl)ccc1Cl)N1CCN(c2cc(-c3ccc(F)cc3)[nH]n2)CC1 | 897 |
| COc1cccc(NC(=O)C2c3cc(OC)c(OC)cc3C(=O)N3CCc4ccccc4C23)c1 (centres undefined) | 809 |
| COc1ccc(Cn2cccc2-c2nc(-c3ccncc3)no2)cc1 | 1080 |
| CC(C)C(=O)NC(C)c1nc(-c2ccccc2Cl)no1 (centres undefined) | 834 |
| CCCCN(CCCC)c1nc(-c2ccccc2)nc2ccccc12 | 976 |
| CC1Oc2ccc(S(=O)(=O)N3CCC(C(=O)NC4CCCCCCC4)CC3)cc2NC1=O (centres undefined) | 907 |
| CN(C)[C@@H]1CN(C(=O)COc2ccccc2)C[C@H]1CO | 546 |

| Structure (SMILES) | RP-LC retention time [s] |
| --- | --- |
| O=C(NCc1ccc(F)cc1F)c1cc2n(n1)CCCC2 | 812 |
| O=S(=O)(NCc1ccc2[nH]c3c(c2c1)CCCC3)c1ccccc1 | 600 |
| Cc1cc2[nH]c(C(=O)Nc3cc(F)ccc3C)c(CN3CCOCC3)c2s1 | 678 |
| CCOC(=O)c1c(C)[nH]c(CCC(=O)NCCc2c[nH]c3ccc(OC)cc23)c1C | 837 |
| COCCCNCc1c(C(=O)O)c(C)n(Cc2ccc(Cl)cc2)c1C | 672 |
| COc1ccc(-c2cc3c(=O)n(Cc4noc(CN(C)C5CCCCC5)n4)ccn3n2)cc1 | 671 |
| O=C1C2N=NN(Cc3nc(-c4ccc5c(c4)OCO5)no3)C2C(=O)N1c1ccccc1 (centres undefined) | 893 |
| Cc1cc(C)n2nc(-c3ccccc3)c(C)c2n1 | 906 |
| O=C(Nc1cc(-c2ccccc2)nn1CCO)c1ccc2nsnc2c1 | 764 |
| CC(C)Oc1cc(O)c2c(=O)cc(-c3ccccc3)oc2c1 | 1260 |
| CCOC(=O)c1cn(Cc2ccccc2)c2ccccc2c1=O | 769 |
| O=C(c1ccc(Br)o1)N1CCC(c2cnn(-c3ccc(F)cc3)c2)CC1 | 984 |
| COc1ccc(NC(=O)Cc2nnc3ccc(C(=O)Nc4ccccc4)cn23)cc1 | 749 |
| CCS(=O)(=O)N1CC(=O)N(c2ccc(Cl)cc2C)C(C)(C(=O)NCc2ccc(F)cc2)C1 (centres undefined) | 882 |
| CCN1CCC2(CC1)CC(c1nnc(C)o1)N(CCc1ccccc1)C2 (centres undefined) | 550 |
| O=C(c1c(OCC2CC2)cc(=O)n2c1CCCCC2)N1CCc2ccccc2C1 | 837 |
| CCCCOc1ccc(C(=O)Nc2cc(OC)ccc2OC)cc1 | 1110 |
| Nc1cc(C(=O)Nc2ccccc2F)ccc1N1CC2CC(C1)c1cccc(=O)n1C2 (centres undefined) | 740 |
| CO[C@H]1C(=O)N(C(C)C)[C@H]1C1CCN(C(=O)c2cnccn2)CC1 | 621 |
| Cc1nc2c(sc3nc(-c4ccccc4)ccc32)c(=O)n1CC(=O)NCc1ccc2c(c1)OCO2 | 985 |
| COc1ccc(NC(=O)N2CCC(c3nc(C(=O)N4CCOCC4)c(C)o3)CC2)c(C)c1 | 663 |
| O=C(Nc1ccc2c(c1)OCCO2)N1C[C@@H]2CN(S(=O)(=O)c3ccccc3)C[C@H](C1)O2 | 728 |
| O=C(Nc1nnc(Cc2cccs2)o1)c1cc2cc([N+](=O)[O-])ccc2s1 | 858 |

| Structure (SMILES) | RP-LC retention time [s] |
| --- | --- |
| CCN(C(=O)Nc1ccccc1[N+](=O)[O-])c1nc(-c2ccc(C)cc2)cs1 | 1410 |
| CC(=O)Nc1nnc(C2=COCCO2)o1 | 515 |
| CC(C)CC(NC(=O)[C@H]1CCCN1C(=O)OCc1ccccc1)C(=O)NCC(=O)NO (some centres undefined) | 648 |
| Cc1sc2ccn(C)c(=O)c2c1C(=O)NC1CCCCC1 | 716 |
| CCCCN1CCN(S(=O)(=O)c2cc(-c3nnc(CC)o3)co2)CC1 | 608 |
| Cc1nc(CC(=O)Nc2ccc(F)cc2C)cs1 | 737 |
| CCOc1nc2ccccc2nc1N1CCCC(C(=O)Nc2cc(Cl)ccc2C)C1 (centres undefined) | 1310 |
| CC1CCN(c2nn(CC(=O)Nc3ccc(F)cc3)c(=O)c3ccccc23)CC1 | 1120 |
| COCCc1noc([C@@H]2CC(F)(F)CN2C(=O)c2ccco2)n1 | 716 |
| O=C(Nc1ccccc1Cl)C1CN(S(=O)(=O)C2CC2)CC12CCCCC2 (centres undefined) | 1020 |
| CCOc1ccc(NC(=O)c2oc3ccc(Br)cc3c2C)c2cccnc12 | 815 |
| CCn1cnc(S(=O)(=O)N2CCC(C(=O)Nc3ccc4c(c3)OCCO4)CC2)c1 | 681 |
| O=C(COc1cc(O)c2c(=O)c3ccccc3oc2c1)OCc1ccccc1 | 1220 |
| CC(Oc1ccccc1Cl)C(=O)NCCn1cnc(-c2ccccc2)cc1=O (centres undefined) | 790 |
| COc1cn(CC(=O)Nc2ccc(C)c(Cl)c2)c(CN2CCN(C(C)=O)CC2)cc1=O | 595 |
| O=C(c1cc(-c2ccncc2)n[nH]1)N1CCCC(C(=O)N2CC=C(c3ccccc3)CC2)C1 (centres undefined) | 648 |
| CC(C)S(=O)(=O)c1cc2c(cc1NC(=O)c1ccc(Br)cc1)n(C)c(=O)n2C | 951 |
| CCOC(=O)C1CCN(C(=O)Cn2c(=O)oc3ccc(C(=O)N4CCCCC4)cc32)CC1 | 759 |
| O=C(NCc1ccc2c(c1)OCO2)C1CCCN(c2ccnc(-c3ccc(F)cc3)n2)C1 (centres undefined) | 660 |
| Cc1nnc(NC(=O)CN2CCN(c3ccccc3F)C2=O)s1 | 626 |
